From US7135292B2, “Analysis and modification of gene expression in marine invertebrate cells” (Harbor Branch Oceanographic Institution, Inc., priority 2002, dated 2006)

System: Axinella corrugata cell cultures
Experiment: Human-sequence microarray (Gene Filters) analysis of gene expression, PHA-treated vs untreated sponge cell cultures
Assay type: cell-based
Source text: Sponge Cells. Cells were obtained from cryopreserved stocks at Harbor Branch Oceanographic Institution. All cells were derived from Axinella corrugata specimens collected in the waters of Florida, the Bahamas, and the Caribbean Sea, and were cryopreserved according to Pomponi et al. (Pomponi et al. 1997b supra). This sponge is relatively common and easy to collect, amenable to culture efforts, and produces the bioactive compound, stevensine, in vitro (Pomponi et al. 1997b supra). Enriched fractions of dissociated sponge cells were prepared, cryopreserved, and thawed according to previously published methods (Pomponi et al. 1997b supra). Cells were incubated at 22–25° C. in a growth medium consisting of a modified and supplemented commercial formulation (Willoughby and Pomponi 2000 supra). The length of the incubation period was based on my unpublished observation of elevated DNA and protein contents (9%, P=0.034, and 9%, P=0.038, respectively) in PHA-treated cultures, according to fluorescent assays of 6 replicate comparisons (Willoughby and Pomponi 2000 supra). Since the effects were observed between 6 and 18 hours after treatment, cells were cultured for 12-hour periods representing the center point of the period of observed changes. Two sets of cultures were incubated with approximately 2×10^8 cells per T-75 flask—a control set and an experimental set treated with 1.5% phytohemagglutinin (PHA) (Life Technologies, M-form).
RNA Isolation. RNA isolation was performed on unrinsed, pelleted cells. Pellets were quickly frozen in a dry ice alcohol bath and stored at −70° C. until RNA isolation. The Qiagen RNeasy® protocol was used, with the following modifications. Samples were disrupted with a micropestle or homogenized by the rotor-stator method, using twice the recommended volume of lysis solution. Prior to column loading, samples were centrifuged through a Qiashredder® column to complete homogenization and remove insoluble material. Supernatant was collected for use in the rest of the protocol. During the first wash step, samples were incubated on the column with DNase 1 (Qiagen or Ambion) for 15 minutes. After the final wash, samples were incubated on the column with the RNase free elution water for 15 minutes prior to elution. Sub-samples were diluted 20× and quantified on a Genequant® spectrophotometer.
cDNA Labeling. Sub-samples of the isolated total RNA (8 μl) were primed with oligo dT (10–20 mer) (Research Genetics, Inc.) for 10 minutes at 70° C., then briefly chilled on ice, followed by addition of 2 volumes of RT cocktail based upon the Life Technologies Superscript II® protocol (containing dATP, dGTP, dTTP, and α-^33P dCTP [NEN Easy Tides®, 3000 Ci/mmol]). The mixture was incubated for 90 minutes at 37° C., and diluted to 100 μl for purification on a Bio-Spin column (Boi-Rad) according to the Gene Filter® (Research Genetics, Inc.) recommended protocol. The resultant labeled probes were then denatured for 3 minutes in a boiling water bath prior to incorporation into the hybridization solution.
Microarrays. Research Genetics Gene Filters®, version 211, were employed in this study. These microarrays feature over 4000 distinct sequence-verified genes spotted onto a 5×7 cm nylon membrane. The DNA at each spot represents approximately 1 kb from the 3′ end of the gene. The microarrays also include spots of total genomic DNA (see FIG. 5). The 211 series is constructed from human sequences. A cross-referenced database listing of all the genes represented on the array is available at http://www.resgen.com. The 2 genes referenced in this work carry the I.M.A.G.E. Consortium (Lennon, G. G., C. Auffray, M. Polymeropoulos and M. B. Soares 1996, Genomics 33:151–152), Clone IDs 81408 (calcineurin B) and 858292 (cdc10).
Hybridization. […]

## phytohemagglutinin [PHA]
No. 56, PHA treated/untreated, 12 h
  Ratio, Small inducible cytokine A11 (eotaxin): 0.493
No. 57, PHA treated/untreated, 12 h
  Ratio, Major histocompatibility complex, class II, DR beta 5: 0.255
No. 58, PHA treated/untreated, 12 h
  Ratio, Evi-1: 0.159
No. 59, PHA treated/untreated, 12 h
  Ratio, Homo sapiens thrombospondin 3 (THBS3) gene, complete cds: 0.019
No. 60, PHA treated/untreated, 12 h
  Ratio, RhoE: 0.312
No. 61, PHA treated/untreated, 12 h
  Ratio, Human bone morphogenetic protein-3b: 0.209
No. 62, PHA treated/untreated, 12 h
  Ratio, Vitamin K-dependent gamma-B74carboxylase: 2.101
No. 63, PHA treated/untreated, 12 h
  Ratio, Homo sapiens cdc14 homolog mRNA, complete cds: 11.905
No. 64, PHA treated/untreated, 12 h
  Ratio, Homo sapiens, alpha-1 (VI) collagen: 2.509
No. 65, PHA treated/untreated, 12 h
  Ratio, Homo sapiens BAI 3 mRNA, complete cds: 3.228
No. 66, PHA treated/untreated, 12 h
  Ratio, Human TFIIB related factor hBRF (HBRF) mRNA, complete cds: 0.118
No. 67, PHA treated/untreated, 12 h
  Ratio, Human capping protein alpha mRNA, partial cds: 2.650
No. 68, PHA treated/untreated, 12 h
  Ratio, Human melanocyte-specific gene 1 (msg1) mRNA, complete cds: 0.390
No. 69, PHA treated/untreated, 12 h
  Ratio, Ras-like protein TC21: 2.737
No. 70, PHA treated/untreated, 12 h
  Ratio, Homo sapiens mRNA for inositol 1,4,5-trisphosphate 3-kinase isoenzyme, partial cds: 0.494
No. 71, PHA treated/untreated, 12 h
  Ratio, Homo sapiens clone 23619 phosphoprotein mRNA, partial cds: 0.296
No. 72, PHA treated/untreated, 12 h
  Ratio, Human lysosomal glycosylasparaginase (AGA) gene: 0.317
No. 73, PHA treated/untreated, 12 h
  Ratio, COUP transcription factor: 0.080
No. 74, PHA treated/untreated, 12 h
  Ratio, Human mRNA for prepro cortistatin like peptide, complete cds: 3.616
No. 75, PHA treated/untreated, 12 h
  Ratio, Homo sapiens mRNA for repressor protein, partial cds: 0.483
No. 76, PHA treated/untreated, 12 h
  Ratio, N-Terminal acetyltransferase complex ARD1 subunit homolog + B88: 0.275
No. 77, PHA treated/untreated, 12 h
  Ratio, Human alpha-tubulin isotype H2-alpha gene, last exon: 0.264
No. 78, PHA treated/untreated, 12 h
  Ratio, Human alpha-cardiac actin gene, 5′ flank and: 0.402
No. 79, PHA treated/untreated, 12 h
  Ratio, Homo sapiens MAD-related gene SMAD7 (SMAD7) mRNA, complete cds: 3.829
No. 80, PHA treated/untreated, 12 h
  Ratio, Human ETS2 oncogene: 2.260
No. 81, PHA treated/untreated, 12 h
  Ratio, Human mRNA for alpha-catenin, complete cds: 0.147
No. 82, PHA treated/untreated, 12 h
  Ratio, Human mRNA for TESK1, complete cds: 0.282
No. 83, PHA treated/untreated, 12 h
  Ratio, Homo sapiens DnaJ protein (HSPF2) mRNA, complete cds: 0.206
No. 84, PHA treated/untreated, 12 h
  Ratio, Keratin, type I cytoskeletal 20: 0.283
No. 85, PHA treated/untreated, 12 h
  Ratio, Homo sapiens FMRFamide-related prepropeptide mRNA, complete cds: 2.156
No. 86, PHA treated/untreated, 12 h
  Ratio, H. sapiens mRNA for p40: 7.841
No. 87, PHA treated/untreated, 12 h
  Ratio, Homo sapiens mRNA for p115, complete cds: 0.477
No. 88, PHA treated/untreated, 12 h
  Ratio, Factor VIII intron 22 protein: 0.490
No. 89, PHA treated/untreated, 12 h
  Ratio, Human RNA polymerase II subunit hsRPB7 mRNA, complete cds: 0.441
No. 90, PHA treated/untreated, 12 h
  Ratio, Homo sapiens mRNA for osteomodulin, complete cds: 0.354
No. 91, PHA treated/untreated, 12 h
  Ratio, Hemoglobin zeta chain: 11.817
No. 92, PHA treated/untreated, 12 h
  Ratio, Human cartilage-specific homeodomain protein Cart-1 mRNA, complete cds: 0.201
No. 93, PHA treated/untreated, 12 h
  Ratio, Human cytochrome bc-1 complex core protein II mRNA, complete cds: 0.325
No. 94, PHA treated/untreated, 12 h
  Ratio, H. sapiens mRNA for Ndr protein kinase: 0.435
No. 95, PHA treated/untreated, 12 h
  Ratio, Human HEM45 mRNA, complete cds: 0.114
No. 96, PHA treated/untreated, 12 h
  Ratio, C-1-tetrahydrofolate synthase, cytoplasmic: 2.966
No. 97, PHA treated/untreated, 12 h
  Ratio, Homo sapiens mRNA for transducin (beta) like 1 protein: 0.091
No. 98, PHA treated/untreated, 12 h
  Ratio, Human Bcl-2 related (Bfl-1) mRNA, complete cds: 0.472
No. 99, PHA treated/untreated, 12 h
  Ratio, H. sapiens mRNA for InsP3 5-phosphatase: 0.215
No. 100, PHA treated/untreated, 12 h
  Ratio, H. sapiens mRNA for 17-beta-hydroxysteroid dehydrogenase: 0.432
No. 101, PHA treated/untreated, 12 h
  Ratio, Ubiquitin carboxyl-terminal hydrolase isozyme L3: 0.388
No. 102, PHA treated/untreated, 12 h
  Ratio, Human putative tRNA synthetase-like protein mRNA, complete cds: 0.493
No. 103, PHA treated/untreated, 12 h
  Ratio, Human galectin-4 (GAL4) mRNA, complete cds: 0.443
No. 104, PHA treated/untreated, 12 h
  Ratio, Glycylpeptide N-tetradecanoyl transferase: 0.354
No. 105, PHA treated/untreated, 12 h
  Ratio, H. sapiens LDLC mRNA: 0.395
No. 106, PHA treated/untreated, 12 h
  Ratio, Human CREB-binding protein (CBP) mRNA, complete cds: 0.210
No. 107, PHA treated/untreated, 12 h
  Ratio, Human enigma gene, complete cds: 0.496
No. 108, PHA treated/untreated, 12 h
  Ratio, Human FEZ2 mRNA, partial cds: 0.283
approximately
  calcineurin down-regulated by the PHA treatment (microarray): 2–5 fold
  cdc10 up-regulated by the PHA treatment (microarray): 2–5 fold
